Assay results reported in patent publication US20090054412A1, “Treatment of Sleep Disorders” (priority 2007, published 2009).
“Also recorded” adds a separate entry of the source.

How the values were obtained:
[1] = biological target: T1, rat GABAA receptors α1β2γ2 (Rattus norvegicus, UniProt P18508+P62813); assay: Stimulation of GABA (EC3-5)-elicited currents in Xenopus oocytes, two-electrode voltage clamp, α1β2γ2; format: cell-based
T1 construct: expressed in transfected cells; host or cells: Xenopus laevis oocytes, cRNA microinjected
Excerpt: (§1) 7-Chloro-3-(5-dimethylaminomethyl-[1,2,4]oxadiazol-3-yl)-5methyl-4,5-dihydro-imidazol[1,5,-a][1,4]benzodiazepine-6-one was used to test the effects of the compound of formula (II): […]
(§2) Similar procedures were chosen as for the investigation of other GABAA receptor subunit specific substances (e.g., Baur et al., 2005; Mol. Pharmacol. 68, 787-792).
(§3) Lobes of the ovary containing the follicles were obtained by surgical procedures from female Xenopus laevis. Follicles were singled out using a platinum loop. Fifty nL of cRNA solution at a ratio of αx:β2:γ2 of 1:1:5 (3.3-10 nM αx (x=1,2,3,5); 3.3-10 nM β2; 16.7-50 nM γ2) (Boileau et al., 2002; Neuropharmacology 43, 695-700) were microinjected into Xenopus follicles. Several hours after microinjection the follicles were freed of follicular layers and adhering connective tissue by a collagenase/hypertonic shock procedure (Sigel, 1987; J. Physiol.(Land) 386, 73-90). Oocytes were kept at constant 18° C. until measurement (1-4 days) in a modified Barth solution (88 mM NaCl, 1 mM KCl, 2.4 mM NaHCO3, 10 mM Hepes-NaOH (pH 7.5), 0.82 mM MgSO4×7H2O, 0.34 mM Ca(NO3)2×4H2O, 0.41 mM CaCl2×2H2O, 100 U Penicillin/mL, 100 μg Streptomycin/mL, sterile filtered).
(§4) Currents were measured using a home-built amplifier in combination with a xy-recorder or were digitized using a MacLab/200 (AD Instruments) and stored on a computer. Xenopus oocytes were voltage clamped using the two-electrode voltage clamp technique (electrode resistance about 0.8 MΩ) at −80 mV. The medium contained 90 mM NaCl, 1 mM KCl, 1 mM MgCl2, 1 mM CaCl2, 10 mM Na-Hepes (pH 7.4) and 0.5% DMSO.
(§5) GABA was applied for 20-50 seconds without or in combination with other drugs and a washout period of 4 minutes was allowed to ensure full recovery from desensitization, which was experimentally determined. The perfusion solution (6 mL/min) was applied through a glass capillary with an inner diameter of 1.35 mm, the mouth of which was placed about 0.4 mm from the surface of the oocyte. The rate of solution change under our conditions has been estimated 70% within less than 0.5 s (Sigel et al., 1990; Neuron 5, 703-711). The entire perfusion system and the assay chamber were cleaned between drug applications by washing with DMSO.
(§6) Data is given as mean±SD, except in the figures where data is shown for clarity as mean±SEM. Current stimulation was calculated as follows: stimulation (%)=((I(GABA+modulator)−I(GABA))/I(GABA))×100%, where I is the current amplitude. Where indicated, the stimulation was standardized to the stimulation by 1 μM diazepam (100%). To obtain FIGS. 1-4, values for current stimulation obtained at a given concentration of modulator at a given subunit combination were averaged. The data points were fitted with the equation stimulation=efficacy/(1+(potency/concentration of modulator)). The values given in the Tables (Summary) are obtained by fitting individual curves and subsequently averaging efficacy and potency.
GABA (EC3-5) was applied to an oocyte expressing α1β2γ2 GABAA receptors several times until the current response was stable. The GABA (EC3-5) refers to the effective concentration of GABA, which produces a response that is 3-5% of the maximal response to high concentrations of GABA. Such a low concentration of GABA is chosen in order to better see the potentiating effect of positive allosteric modulators.
GABA was then applied in combination with various concentrations of the compound of formula (II) between 0.3 nM and 3,000 nM to produce a cumulative concentration response curve. […] In each batch of oocytes the stimulation by 1 μM diazepam was determined in five ocytes, extent of stimulation averaged and defined as 100%. Where indicated, stimulation by the compound of formula (II) in each batch of ocytes was expressed as a percentage of this value in the corresponding batch.
GABA (EC3-5) was applied to an oocyte expressing α1β2γ2 GABAA receptors several times until the current response was stable.

[2] = biological target: T2, rat GABAA receptors α2β2γ2 (Rattus norvegicus, UniProt P18508+P23576); assay: Stimulation of GABA (EC3-5)-elicited currents in Xenopus oocytes, two-electrode voltage clamp, α2β2γ2; format: cell-based
T2 construct: expressed in transfected cells; host or cells: Xenopus laevis oocytes, cRNA microinjected
Excerpt: as §1, §2, §3, §4, §5, §6
(§7) Concentration response curves were also performed with oocytes expressing α2β2γ2, α3β2γ2, or α5β2γ2, after establishing the optimal concentration range as indicated above. […] Averaged data of the individual curves summarizing the effects of the compound of formula (II) are shown below for unstandardized and standardized stimulation.
(§8) Concentration response curves were also performed with oocytes expressing α2β2γ2, α3β2γ2, or α5β2γ2.
(§9) Current stimulation by diazepam was determined in each batch of oocytes as follows. GABA (EC3-5) was applied until a stable response was obtained. Subsequently, GABA was applied in combination with 1 μM diazepam.

[3] = biological target: T3, rat GABAA receptors α3β2γ2 (Rattus norvegicus, UniProt P18508+P20236); assay: Stimulation of GABA (EC3-5)-elicited currents in Xenopus oocytes, two-electrode voltage clamp, α3β2γ2; format: cell-based
T3 construct: expressed in transfected cells; host or cells: Xenopus laevis oocytes, cRNA microinjected
Excerpt: as §1, §2, §3, §4, §5, §6, §7, §8, §9

[4] = biological target: T4, rat GABAA receptors α5β2γ2 (Rattus norvegicus, UniProt P18508+P19969); assay: Stimulation of GABA (EC3-5)-elicited currents in Xenopus oocytes, two-electrode voltage clamp, α5β2γ2; format: cell-based
T4 construct: expressed in transfected cells; host or cells: Xenopus laevis oocytes, cRNA microinjected
Excerpt: as §1, §2, §3, §4, §5, §6, §7, §8, §9

[5] = Example 2: single and repeat dose pharmacokinetic, safety and pharmacodynamic study in healthy volunteers; format: in vivo; conditions: human
Description: A single and repeat dose pharmacokinetic safety and pharmacodynamic study of the effects of the compound of formula (II) was conducted using healthy volunteers. The compound of formula (II) was administered orally in 1 mg, 1.5 mg, 2 mg and 2.5 mg doses via a hard gelatine capsule containing the compound in powder form.

[6] = GABA EC3-5, mean±SD of individually fitted curves, read-out: Potency
[7] = standardized to stimulation by 1 μM diazepam (100%)
[8] = unstandardized current stimulation

T2 sequence (P23576 29-451): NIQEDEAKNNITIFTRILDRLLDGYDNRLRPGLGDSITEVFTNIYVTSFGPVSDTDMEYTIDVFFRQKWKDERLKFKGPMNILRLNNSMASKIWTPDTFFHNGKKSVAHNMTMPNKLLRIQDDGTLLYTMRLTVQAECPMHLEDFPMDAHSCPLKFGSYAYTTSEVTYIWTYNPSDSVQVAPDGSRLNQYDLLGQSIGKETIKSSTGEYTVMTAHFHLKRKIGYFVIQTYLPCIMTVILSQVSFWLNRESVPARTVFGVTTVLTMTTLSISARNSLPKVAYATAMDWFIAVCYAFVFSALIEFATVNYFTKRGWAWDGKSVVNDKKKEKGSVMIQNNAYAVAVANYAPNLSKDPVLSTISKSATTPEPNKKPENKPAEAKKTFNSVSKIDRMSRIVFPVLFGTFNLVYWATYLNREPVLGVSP
T2 sequence (P63138 25-474 partner limits assumed): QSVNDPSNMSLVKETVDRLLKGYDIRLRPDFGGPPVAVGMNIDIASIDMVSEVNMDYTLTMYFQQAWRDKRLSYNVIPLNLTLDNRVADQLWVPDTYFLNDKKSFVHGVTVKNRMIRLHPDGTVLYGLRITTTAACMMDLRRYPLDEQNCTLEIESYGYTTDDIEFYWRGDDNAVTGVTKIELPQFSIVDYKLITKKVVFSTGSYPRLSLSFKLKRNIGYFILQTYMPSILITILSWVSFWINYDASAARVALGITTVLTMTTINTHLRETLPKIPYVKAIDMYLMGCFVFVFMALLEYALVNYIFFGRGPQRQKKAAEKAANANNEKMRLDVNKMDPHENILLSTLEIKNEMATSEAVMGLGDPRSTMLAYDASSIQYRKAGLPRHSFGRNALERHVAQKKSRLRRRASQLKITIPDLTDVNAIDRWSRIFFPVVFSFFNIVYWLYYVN
T2 sequence (P18508 39-466): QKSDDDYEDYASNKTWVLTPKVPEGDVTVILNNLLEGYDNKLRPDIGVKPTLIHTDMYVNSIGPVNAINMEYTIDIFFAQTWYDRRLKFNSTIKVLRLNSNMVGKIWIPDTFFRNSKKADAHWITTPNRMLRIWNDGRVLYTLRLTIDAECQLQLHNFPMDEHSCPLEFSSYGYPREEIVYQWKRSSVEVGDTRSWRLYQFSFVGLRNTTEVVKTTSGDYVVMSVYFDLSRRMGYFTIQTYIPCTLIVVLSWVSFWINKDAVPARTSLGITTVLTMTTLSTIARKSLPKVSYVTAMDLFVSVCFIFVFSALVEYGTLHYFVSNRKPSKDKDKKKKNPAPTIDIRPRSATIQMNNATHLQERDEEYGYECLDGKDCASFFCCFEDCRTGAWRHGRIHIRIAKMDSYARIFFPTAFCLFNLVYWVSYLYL
T1 sequence (P62813 28-455): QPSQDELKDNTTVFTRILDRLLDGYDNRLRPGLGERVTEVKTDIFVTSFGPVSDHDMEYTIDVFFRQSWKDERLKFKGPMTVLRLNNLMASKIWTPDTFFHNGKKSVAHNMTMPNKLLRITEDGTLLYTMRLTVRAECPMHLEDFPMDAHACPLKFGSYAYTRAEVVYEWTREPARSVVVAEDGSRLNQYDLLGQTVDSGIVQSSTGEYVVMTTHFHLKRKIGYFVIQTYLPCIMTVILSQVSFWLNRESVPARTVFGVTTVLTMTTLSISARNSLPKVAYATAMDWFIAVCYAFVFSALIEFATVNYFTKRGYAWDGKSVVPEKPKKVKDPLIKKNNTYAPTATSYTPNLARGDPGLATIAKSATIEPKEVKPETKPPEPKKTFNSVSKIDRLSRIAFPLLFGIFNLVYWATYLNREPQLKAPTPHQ
T1 sequence (P63138 25-474 partner limits assumed): as the sequence (P63138 25-474 partner limits assumed) above
T1 sequence (P18508 39-466): as the sequence (P18508 39-466) above
T4 sequence (P19969 32-464 limits assumed): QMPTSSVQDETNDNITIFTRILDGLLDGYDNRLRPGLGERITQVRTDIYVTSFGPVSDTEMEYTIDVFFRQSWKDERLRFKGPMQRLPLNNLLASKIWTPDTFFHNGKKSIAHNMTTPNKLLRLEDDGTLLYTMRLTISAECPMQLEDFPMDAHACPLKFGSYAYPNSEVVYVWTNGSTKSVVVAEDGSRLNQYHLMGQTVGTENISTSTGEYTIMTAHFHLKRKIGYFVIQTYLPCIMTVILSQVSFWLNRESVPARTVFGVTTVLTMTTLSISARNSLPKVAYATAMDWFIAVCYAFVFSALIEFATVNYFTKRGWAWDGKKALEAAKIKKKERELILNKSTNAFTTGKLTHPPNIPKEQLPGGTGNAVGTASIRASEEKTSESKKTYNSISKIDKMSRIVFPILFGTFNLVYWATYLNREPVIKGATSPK
T4 sequence (P63138 25-474 partner limits assumed): as the sequence (P63138 25-474 partner limits assumed) above
T4 sequence (P18508 39-466): as the sequence (P18508 39-466) above
T3 sequence (P20236 29-493): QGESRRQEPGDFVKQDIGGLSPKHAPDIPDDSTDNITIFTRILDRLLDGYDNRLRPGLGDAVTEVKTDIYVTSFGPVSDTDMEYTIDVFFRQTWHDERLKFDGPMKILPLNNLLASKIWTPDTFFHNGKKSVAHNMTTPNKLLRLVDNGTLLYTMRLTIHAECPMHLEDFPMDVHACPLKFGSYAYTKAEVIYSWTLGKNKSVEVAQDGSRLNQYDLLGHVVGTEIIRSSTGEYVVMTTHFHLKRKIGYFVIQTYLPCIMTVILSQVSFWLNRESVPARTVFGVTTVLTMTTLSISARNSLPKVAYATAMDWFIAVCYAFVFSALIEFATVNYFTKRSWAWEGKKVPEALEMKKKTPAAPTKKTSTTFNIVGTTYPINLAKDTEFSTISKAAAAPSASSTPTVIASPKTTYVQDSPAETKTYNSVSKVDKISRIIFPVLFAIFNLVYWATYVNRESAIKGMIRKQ
T3 sequence (P63138 25-474 partner limits assumed): as the sequence (P63138 25-474 partner limits assumed) above
T3 sequence (P18508 39-466): as the sequence (P18508 39-466) above

For CN(C)Cc1nc(-c2ncn3c2CN(C)C(=O)c2c(Cl)cccc2-3)no1 [compound of formula (II), 7-chloro-3-(5-dimethylaminomethyl-[1,2,4]oxadiazol-3-yl)-5-methyl-4,5-dihydro-imidazo[1,5-a][1,4]benzodiazepine-6-one], the “Intrinsic activity / type of allosteric modulation” value ([1]; GABAA receptor benzodiazepine site, relative to diazepam) was “partial positive allosteric modulator; also recorded: partial agonist”, the Receptor subtype preference ([1]; at concentrations <100 nM, in comparison to α5β2γ2, α3β2γ2 and α2β2γ2) was “preference for α1β2γ2 GABAA receptors” and the EC50 ([1]; α1β2γ2, GABA EC3-5, mean±SD of individually fitted curves, read-out: Potency) was 18 ± 6 nM. For the same molecule, the “Standardized Efficacy” value ([1]; α1β2γ2, standardized to stimulation by 1 μM diazepam (100%)) was 62 ± 10% (n = 4), the Efficacy ([1]; α1β2γ2, unstandardized current stimulation) was 123 ± 19% (n = 4) and the EC50 [2, 6] was 62 ± 21 nM. The “Standardized Efficacy” value [2, 7] was 31 ± 6% (n = 5), the Efficacy [2, 8] was 90 ± 16% (n = 5) and the EC50 [3, 6] was 84 ± 15 nM. The “Standardized Efficacy” value [3, 7] was 41 ± 8% (n = 5), the Efficacy [3, 8] was 171 ± 33% (n = 5) and the EC50 [4, 6] was 53 ± 6 nM. For the same molecule, the “Standardized Efficacy” value [4, 7] was 69 ± 23% (n = 5), the Efficacy [4, 8] was 135 ± 16% (n = 5) and the half-life ([5]; in vivo, po) was 3 to 4 h. The “effect of food on the extent of absorption” value ([5]; oral) was “little or no effect” and the “pharmacokinetic profile on day 14 after repeat dosing compared to day 1” value ([5]; oral repeat dosing) was “no significant differences”.
